Data from EP0153538A1, “Derivatives of melilotic acid, and medicaments containing them” (Laboratoire Marcel Richard Société anonyme dite, priority 1984, dated 1985).
Where two headings read alike, the source gives them in different places.

Columns and labels:
Solubility (qualitative) = format: physicochemical
Procedure: Plus particulièrement, l'acide fluoro-5 acétyl mélilotique se présente sous la forme d'une poudre cristalline blanche, peu soluble dans l'eau, mais soluble dans l'alcool, l'acétone et dans les solvants organiques usuels. Son point de fusion est de 96-98°C.
12 g d'acide fluoro-5 acétoxy-2 cinnamique sont dissous dans 120cm3 acétate d'éthyle avec 1,5 g de palladium sur charbon à 10 % et hydro- gènés dans l'appareil de Parr sous 5 atmosphères d'hydrogène pendant 1 heure; on filtre et concentre sous vide pour obtenir un résidu cristallisé d'acide fluoro-5 acétylmélilotique pur peu soluble dans l'eau, soluble dans l'alcool, l'acétone et les solvants organiques usuels.

[1] = Acute toxicity in male SWISS mice; conditions: mouse, in vivo, souris mâle SWISS, read-out: toxicité (converted)
Procedure: Sa toxicité est de 1 500 mg/Kg par voie orale et de 750 mg/Kg par voie intrapéritonéale, déterminée sur la souris mâle-de la souche SWISS.

[2] = test system: agrégation plaquettaire provoquée par l'ADP; assay: Inhibition of ADP-induced platelet aggregation, human blood; format: cell-based; conditions: sang humain, 100 mg/Kg
Procedure: (§1) Ce produit inhibe l'agrégation plaquettaire provoquée par l'ADP (adénosine diphosphate) : • sur le sang humain, inhibition de 40 % à 100 mg/Kg, sur le rat et le lapin, inhibition de 60 Z à 100 mg/Kg.

[3] = test system: agrégation plaquettaire provoquée par l'ADP; assay: Inhibition of ADP-induced platelet aggregation, rat; format: in vivo; conditions: 100 mg/Kg
Procedure: as §1

[4] = test system: agrégation plaquettaire provoquée par l'ADP; assay: Inhibition of ADP-induced platelet aggregation, rabbit; format: in vivo; conditions: lapin, 100 mg/Kg
Procedure: as §1

rat anesthésié = assay: Blood pressure in the anaesthetised rat after IV administration; format: in vivo; conditions: rat anesthésié à l'éthylméthane, IV 100 mg/Kg
Procedure: Sur le rat anesthésié à l'éthylméthane,on enregistre après administration IV. de 100 mg/Kg de produit selon l'invention une légère hypotension, soit une baisse de 15 %.

chien anesthésié = assay: Cardiovascular and respiratory effects in the pentobarbital-anaesthetised dog after IV injection; format: in vivo; conditions: chien anesthésié au Pentobarbital, IV 50 mg/Kg
souris [5] = assay: Phenylbenzoquinone test (analgesia) in mice; format: in vivo; conditions: test à la phénylbenzoquinone, 500 mg/Kg
Procedure: (§2) En ce qui concerne l'activité analgésique, le produit donne dans le test à la phénylbenzoquinone et dans le test à la plaque chauffante chez la souris une protection de 88 % à 500 mg/Kg.

souris [6] = assay: Hot plate test (analgesia) in mice; format: in vivo; conditions: test à la plaque chauffante, 500 mg/Kg
Procedure: as §2

[7] = test system: artériopathies périphériques, oedème de la cheville, varices; assay: Therapeutic application (peripheral arteriopathies, ankle oedema, varices); format: in vivo

In the case of `CC(=O)Oc1ccc(F)cc1CCC(=O)O` [acide fluoro-5 acétyl mélilotique], the “solubilité dans l'alcool, l'acétone et les solvants organiques usuels” value (Solubility (qualitative); alcool, acétone, solvants organiques usuels) is reported as “soluble”, the “solubilité dans l'eau” value (Solubility (qualitative); eau) is reported as “peu soluble” and the LD50 ([1]; ip, voie intrapéritonéale) is reported as 750 mg/kg. The LD50 ([1]; po, voie orale) was 1500 mg/kg, the “inhibition de l'agrégation plaquettaire provoquée par l'ADP” value [2] was 40% and the inhibition de l'agrégation plaquettaire provoquée par l'ADP [3] was 60%. The “inhibition de l'agrégation plaquettaire provoquée par l'ADP” value [4] was 60%, the “hypotension (baisse)” value (rat anesthésié) was 15% and the “augmentation du débit” value (chien anesthésié) was 65%. For the same compound, the battements (chien anesthésié) was “renforcement”, the “diminution du rythme respiratoire” value (chien anesthésié) was 25% and the fréquence cardiaque (chien anesthésié) was “sans modification”. It also gave a hypotension (chien anesthésié) of 7%, a protection (souris [5]) of 88% and a protection (souris [6]) of 88%. For the same compound, the “application thérapeutique” value [7] was “résultats favorables”.
